Data published in patent US20240082118A1, “TOPICAL COMPOSITIONS AND METHODS OF PREPARING THE SAME” (LANDA LABS (2012) LTD., priority 2021, published 2024).

Tested on: skin of pigs' ears
Assay: Ex vivo penetration of fluorescently marked nano-elements into pig ear skin
Assay type: in vitro ADME
Details: marker in water, or in water with the surfactants of Composition 2.21
Experimental: The distribution of nano-elements of the present compositions in various skin layers was tested ex vivo by applying onto the skin of pigs' ears nano-elements including a fluorescent dye (Nile red) allowing histological monitoring of their presence within the layers of the tissue onto which they were applied.
Tested composition (2) was prepared by adding 2 mg of Nile red fluorescent marker during the preparation of the CSSC premix, as described in Example 2.
The compositions were tested on two freshly harvested pig ears, collected on the same day, and kept fresh and cooled till use. The ears were washed with excess saline solution and wiped dry. They were then immobilized for the duration of the study by taping them onto a glass surface, their inner side facing down. Each ear was marked on its outer side with 6 circles having a diameter of about 1 cm.
25 microliters of each one of the samples were applied onto the skin near the center of the marked circle, each tested composition being applied in two or more separate circles for repeats. The ears with the applied test samples were then placed in an oven for an incubation time of 20 hours at a temperature of 32° C., to simulate the pigs' body temperature. […]
The tissue sections were evaluated by an expert for the presence and intensity of the marker using a fluorescence microscope at objective magnification of ×10. […]

penetration of the fluorescent marker into skin without nano-elements: No penetration
SMILES: CCN(CC)c1ccc2nc3c4ccccc4c(=O)cc-3oc2c1 [Nile red, 9-(diethylamino)-5H-benzo[a]phenoxazin-5-one]
